Experimental data from US11008314B2, “Compounds and methods for modulating interleukin-2-inducible t-cell kinase” (CORVUS PHARMACEUTICALS, INC., priority 2016, dated 2021).

Columns and labels:
Format in all cases: biochemical
JAK3 = JAK3 (Homo sapiens (Human), UniProt P52333); assay: IC50 against JAK3
ITK = ITK (Homo sapiens (Human), UniProt Q08881); assay: IC50 against ITK
BTK = BTK (Homo sapiens (Human), UniProt Q06187); assay: IC50 against BTK
TXK = TXK (Homo sapiens (Human), UniProt P42681); assay: IC50 against TXK; conditions: for TXK/ITK: ratio of TXK IC50 to ITK IC50
Sequence of TXK (P42681 whole entry, species assumed): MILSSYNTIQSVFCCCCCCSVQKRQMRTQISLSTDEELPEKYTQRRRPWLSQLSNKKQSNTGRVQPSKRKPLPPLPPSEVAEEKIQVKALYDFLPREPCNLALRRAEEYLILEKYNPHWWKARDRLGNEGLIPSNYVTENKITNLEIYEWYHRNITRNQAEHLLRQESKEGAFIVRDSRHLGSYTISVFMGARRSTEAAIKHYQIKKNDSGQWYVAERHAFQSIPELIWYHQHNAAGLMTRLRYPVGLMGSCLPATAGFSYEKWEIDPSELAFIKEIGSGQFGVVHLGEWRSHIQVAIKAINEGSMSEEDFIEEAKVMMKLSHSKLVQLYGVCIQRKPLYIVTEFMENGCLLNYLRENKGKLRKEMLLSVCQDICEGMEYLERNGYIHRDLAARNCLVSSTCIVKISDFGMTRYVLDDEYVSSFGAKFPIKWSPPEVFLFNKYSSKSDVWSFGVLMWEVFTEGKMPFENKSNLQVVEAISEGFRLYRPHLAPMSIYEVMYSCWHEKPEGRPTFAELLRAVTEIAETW

Sequence of JAK3 (P52333 whole entry, species assumed): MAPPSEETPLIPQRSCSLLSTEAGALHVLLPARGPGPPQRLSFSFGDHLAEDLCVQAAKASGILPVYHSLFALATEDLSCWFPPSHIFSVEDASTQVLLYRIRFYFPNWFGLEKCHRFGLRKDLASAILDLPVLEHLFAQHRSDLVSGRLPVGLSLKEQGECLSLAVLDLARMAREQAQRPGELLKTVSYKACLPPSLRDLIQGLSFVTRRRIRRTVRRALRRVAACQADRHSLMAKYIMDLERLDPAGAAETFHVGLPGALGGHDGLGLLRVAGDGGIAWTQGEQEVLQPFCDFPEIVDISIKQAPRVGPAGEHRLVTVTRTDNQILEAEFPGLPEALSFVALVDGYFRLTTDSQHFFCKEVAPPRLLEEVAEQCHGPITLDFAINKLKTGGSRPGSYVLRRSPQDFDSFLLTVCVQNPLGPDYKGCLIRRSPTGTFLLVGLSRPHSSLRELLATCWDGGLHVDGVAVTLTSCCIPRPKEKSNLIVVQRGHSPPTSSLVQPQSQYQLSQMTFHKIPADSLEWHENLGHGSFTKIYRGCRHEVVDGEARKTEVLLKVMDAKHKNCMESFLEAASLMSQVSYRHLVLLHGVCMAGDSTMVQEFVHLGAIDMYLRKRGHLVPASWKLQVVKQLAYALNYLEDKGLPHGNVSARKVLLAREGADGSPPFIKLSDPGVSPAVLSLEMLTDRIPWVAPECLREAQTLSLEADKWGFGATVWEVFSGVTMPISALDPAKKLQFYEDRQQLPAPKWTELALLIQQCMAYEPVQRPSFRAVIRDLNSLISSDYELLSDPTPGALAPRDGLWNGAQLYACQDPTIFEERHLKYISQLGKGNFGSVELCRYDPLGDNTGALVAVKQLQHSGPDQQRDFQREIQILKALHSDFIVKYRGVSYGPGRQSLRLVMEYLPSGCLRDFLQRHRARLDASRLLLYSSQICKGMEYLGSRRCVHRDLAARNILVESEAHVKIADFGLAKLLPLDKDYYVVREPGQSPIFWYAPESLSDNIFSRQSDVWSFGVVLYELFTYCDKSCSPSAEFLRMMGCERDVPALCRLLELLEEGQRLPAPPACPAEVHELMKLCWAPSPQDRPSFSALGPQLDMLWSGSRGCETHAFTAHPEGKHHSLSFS
Sequence of ITK (Q08881 whole entry): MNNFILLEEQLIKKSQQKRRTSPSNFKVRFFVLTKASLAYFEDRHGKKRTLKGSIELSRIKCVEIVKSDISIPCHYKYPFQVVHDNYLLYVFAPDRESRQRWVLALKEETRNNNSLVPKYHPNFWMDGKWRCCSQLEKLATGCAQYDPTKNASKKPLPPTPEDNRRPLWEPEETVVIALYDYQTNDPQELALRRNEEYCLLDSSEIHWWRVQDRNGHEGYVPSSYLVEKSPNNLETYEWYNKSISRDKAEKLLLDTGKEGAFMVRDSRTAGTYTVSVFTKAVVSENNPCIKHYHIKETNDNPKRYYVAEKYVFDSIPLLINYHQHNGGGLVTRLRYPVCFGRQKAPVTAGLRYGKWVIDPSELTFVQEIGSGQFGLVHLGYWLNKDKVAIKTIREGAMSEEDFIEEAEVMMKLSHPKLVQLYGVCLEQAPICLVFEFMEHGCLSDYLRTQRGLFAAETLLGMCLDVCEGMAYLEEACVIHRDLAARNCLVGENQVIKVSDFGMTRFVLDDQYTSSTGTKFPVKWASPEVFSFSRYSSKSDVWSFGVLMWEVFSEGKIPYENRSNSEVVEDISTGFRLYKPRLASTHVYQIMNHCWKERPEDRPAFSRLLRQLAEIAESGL
Sequence of BTK (Q06187 whole entry, species assumed): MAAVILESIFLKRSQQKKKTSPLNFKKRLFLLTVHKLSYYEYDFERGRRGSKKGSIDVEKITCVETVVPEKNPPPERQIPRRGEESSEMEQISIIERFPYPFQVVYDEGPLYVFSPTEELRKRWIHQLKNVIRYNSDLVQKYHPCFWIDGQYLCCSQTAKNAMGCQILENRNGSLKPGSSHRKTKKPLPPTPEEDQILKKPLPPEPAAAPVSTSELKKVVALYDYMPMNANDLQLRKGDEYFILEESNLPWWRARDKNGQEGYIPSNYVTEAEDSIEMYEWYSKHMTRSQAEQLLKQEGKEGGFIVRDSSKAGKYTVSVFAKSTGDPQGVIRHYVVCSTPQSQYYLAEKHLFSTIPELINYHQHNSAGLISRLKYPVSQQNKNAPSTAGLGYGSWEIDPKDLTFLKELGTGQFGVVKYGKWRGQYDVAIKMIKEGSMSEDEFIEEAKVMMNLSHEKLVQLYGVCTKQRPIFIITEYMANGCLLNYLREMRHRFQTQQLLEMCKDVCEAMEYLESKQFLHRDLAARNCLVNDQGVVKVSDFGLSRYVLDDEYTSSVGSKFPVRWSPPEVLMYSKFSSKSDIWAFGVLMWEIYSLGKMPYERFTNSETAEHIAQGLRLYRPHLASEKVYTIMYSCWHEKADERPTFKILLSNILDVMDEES

Row | SMILES | IC50 (JAK3) | IC50 (ITK) | IC50 (BTK) | IC50 (TXK) | TXK/ITK (TXK)
1 | C=CC(=O)N1[C@@H]2CC[C@H]1CN(C(=O)c1cc(Sc3cnc(Nc4ccccn4)s3)c(C)cc1OC)C2 [Compound 150, 1-((1R, 5S)-3-(2-methoxy-4-methyl-5-((2-(pyridin-2-ylamino)thiazol-5-yl)thio)benzoyl)-3,8-diazabicyclo[3.2.1]octan-8-yl)prop-2-en-1-one] | 10 to 100 nM | < 10 nM | < 10 nM | < 10 nM | 1.76
2 | C=CC(=O)N1CCN(C(=O)c2cc(Sc3cnc(NC(=O)C4CC4)s3)c(C)cc2OC)[C@H](C)C1 [Compound 20] | 100 to 1000 nM | < 10 nM | 100 to 1000 nM | 10 to 100 nM | 2.2433
3 | C=CC(=O)N1CCN(C(=O)c2cc(Sc3cnc(NC(=O)C4CC4)s3)c(C)cc2OC)C[C@H]1CC [Compound 42] | 1000 to 10000 nM | < 10 nM | 1000 to 10000 nM | 10 to 100 nM | 10.152
4 | C=CC(=O)N1CCN(C(=O)c2cc(Sc3cnc(NC(=O)CC)s3)c(C)cc2OC)[C@@H](C)C1 [Compound 51] | 1000 to 10000 nM | < 10 nM | 100 to 1000 nM | 10 to 100 nM | 14.645
5 | C=CC(=O)N1CCN(C(=O)c2cc(Sc3cnc(NC(=O)C4CC4)s3)c(C)cc2OC)CC1(C)C [Compound 16] | 100 to 1000 nM | 10 to 100 nM | 100 to 1000 nM | 10 to 100 nM | 4.9287
6 | C=CC(=O)N1CCN(C(=O)c2cc(Sc3cnc(NC(=O)C4CC4)s3)c(C)cc2C(F)(F)F)CC1 [Compound 68] | 1000 to 10000 nM | 10 to 100 nM | ≥ 10000 nM | 100 to 1000 nM | 3.6548
7 | C=C(CN(C)C)C(=O)N1CCN(C(=O)c2cc(Sc3cnc(NC(=O)C4CC4)s3)c(C)cc2OC)CC1 [Compound 13] | 1000 to 10000 nM | 10 to 100 nM | 1000 to 10000 nM | 100 to 1000 nM | 22.987
8 | C=CC(=O)N1CC[C@@H](N(C)C(=O)c2cc(Sc3cnc(NC(=O)C4CC4)s3)c(C)cc2OC)C1 [Compound 27] | < 10 nM | < 10 nM | < 10 nM | < 10 nM | 2.0165
9 | CC#CC(=O)N1CCCN(C(=O)c2cc(Sc3cnc(NC(=O)c4cccc(CN(C)C)c4)s3)c(C)cc2OC)CC1 [Compound 38] | ≥ 10000 nM | 10 to 100 nM | 1000 to 10000 nM | 1000 to 10000 nM | 28.189
10 | C=CC(=O)N1CCN(C(=O)c2cc(Sc3cnc(NC(=O)C4CC4)s3)c(C)cc2OC)C[C@H]1C#N [Compound 43] | 10 to 100 nM | < 10 nM | 10 to 100 nM | < 10 nM | 3.4821
11 | C=CC(=O)N1CCN(C(=O)c2cc(Sc3cnc(NC(C)=O)s3)c(C)cc2OC)[C@H](C)C1 [Compound 10] | 1000 to 10000 nM | 10 to 100 nM | 100 to 1000 nM | 100 to 1000 nM | 8.0758
12 | C=CC(=O)N1CCCN(C(=O)c2cc(CSc3cnc(NC(=O)C4CC4)s3)cc(C)c2C)CC1 [Compound 58] | 1000 to 10000 nM | 1000 to 10000 nM | ≥ 10000 nM | 1000 to 10000 nM | 2.9749
13 | C=CC(=O)N1CCN(C(=O)c2cc(Sc3cnc(NC(=O)c4ccncc4)s3)c(C)cc2OC)CC1 [Compound 87] | 1000 to 10000 nM | < 10 nM | 100 to 1000 nM | 100 to 1000 nM | 74.161
14 | C=CC(=O)N1CC[C@H](N(C)C(=O)c2cc(Sc3cnc(NC(=O)C4CC4)s3)c(C)cc2OC)C1 [Compound 29] | 100 to 1000 nM | < 10 nM | 100 to 1000 nM | < 10 nM | 2.1804
15 | C=CC(=O)N1CC[C@H](N(C)C(=O)c2cc(Sc3cnc(NC(C)=O)s3)c(C)cc2OC)C1 [Compound 30] | 1000 to 10000 nM | 10 to 100 nM | 100 to 1000 nM | 10 to 100 nM | 3.101
16 | C=CC(=O)N1CCN(C(=O)c2cc(Sc3cnc(NC(=O)C4CC4)s3)c(C)cc2OC)CC(F)C1 (stereo not shown) [Compound 55] | 10 to 100 nM | < 10 nM | 10 to 100 nM | < 10 nM | 6.2416
17 | C=CC(=O)N1CCN(C(=O)c2cc(Sc3cnc(NC(=O)C4CC4)s3)c(C)cc2OC)[C@@H](C)C1 [Compound 19] | 100 to 1000 nM | < 10 nM | 10 to 100 nM | < 10 nM | 6.5873
18 | C=CC(=O)N1CCN(C(=O)c2cc(Sc3cnc(NC(=O)C4CC4)s3)ccc2OC)C[C@H]1C [Compound 79] | 100 to 1000 nM | 10 to 100 nM | ≥ 10000 nM | 100 to 1000 nM | 21.331

The next lines start with the values.

Row | IC50 (JAK3) | IC50 (ITK) | IC50 (BTK) | IC50 (TXK) | TXK/ITK (TXK) | SMILES
19 | < 10 nM | < 10 nM | < 10 nM | < 10 nM | 3.09 | C=CC(=O)N1CCN(C(=O)c2cc(Sc3cnc(NC(=O)c4ccsc4)s3)c(C)cc2OC)C[C@H]1C#N [Compound 156, (S)-N-(5-((5-(4-acryloyl-3-cyanopiperazine-1-carbonyl)-4-methoxy-2-methylphenyl)thio)thiazol-2-yl)thiophene-3-carboxamide]
20 | 100 to 1000 nM | < 10 nM | 100 to 1000 nM | 10 to 100 nM | 11.0 | C=CC(=O)N1CCN(C(=O)c2cc(Sc3cnc(NC(=O)c4cnsc4)s3)c(C)cc2C)C[C@H]1CC [Compound 131]
21 | 1000 to 10000 nM | < 10 nM | 100 to 1000 nM | 10 to 100 nM | 65.5 | C=CC(=O)N1CCN(C(=O)c2cc(Sc3cnc(NC(=O)c4cccc(CN(C)C)c4)s3)c(C)cc2OC)C[C@H]1CC [Compound 117]
22 | 100 to 1000 nM | < 10 nM | 100 to 1000 nM | 10 to 100 nM | 47.6 | C=CC(=O)N1CCCN(C(=O)c2cc(Sc3cnc(Nc4ccccn4)s3)c(C)cc2OC)C[C@H]1C [Compound 103]
23 | 1000 to 10000 nM | < 10 nM | 100 to 1000 nM | 10 to 100 nM | 9.8 | C=CC(=O)N1CCN(C(=O)c2cc(Sc3cnc(NC(=O)c4cnn(C)c4)s3)c(C)cc2OC)C[C@H]1CC [Compound 115]
24 | 100 to 1000 nM | < 10 nM | 10 to 100 nM | 10 to 100 nM | 32.9 | C=CC(=O)N1CCN(C(=O)c2cc(Sc3cnc(NC(=O)c4cnn(CCN(C)C)c4)s3)c(C)cc2OC)CC1 [Compound 102]
25 | 10 to 100 nM | < 10 nM | < 10 nM | < 10 nM |  | C=CC(=O)N1CCN(C(=O)c2cc(Sc3cnc(Nc4ccc(CN(C)C)cn4)s3)c(C)cc2OC)CC1 [Compound 134]
26 | 100 to 1000 nM | < 10 nM | 100 to 1000 nM | 100 to 1000 nM | 118.5 | C=CC(=O)N1CCCN(C(=O)c2cc(Sc3cnc(NC(=O)c4ccsc4)s3)c(C)cc2C)C[C@H]1CC [Compound 122]
27 | 100 to 1000 nM | 10 to 100 nM | 100 to 1000 nM | 10 to 100 nM | 3.29 | C=CC(=O)N1CCN(C(=O)c2cc(Sc3cnc(Nc4ncc(C)cc4C)s3)c(C)cc2C)CC1 [Compound 138]
28 | 10 to 100 nM | < 10 nM | 10 to 100 nM | 10 to 100 nM | 13.5 | C=CC(=O)N1CCN(C(=O)c2cc(Sc3cnc(NC(=O)c4ccsc4)s3)c(C)cc2C)CC1 [Compound 109]
